Data set [1] relates to RD10 cells (B-cell lymphoma). The data set can be described thus: 3H-thymidine incorporation (mitogenic effect) in RD10 cells. The class given is cell-based. As to the method: (§1) ^3 H-thymidine incorporation experiments were carried out in Linbro-Titertek microtitre plates (Flow Laboratories, Inc., U.S.A.) following the method of L. Bradley in "Selected Methods of Cellular Immunology (1980) Eds. B. B. Mishell and S. M. Shiigi; Publisher. W. H. Freeman and Co., U.S.A. pp156. The tests were carried out externally by Dr. D. Rathjen of Peptide Technology Ltd., Dee Why, N.S.W.
1. RD10; a B-cell lymphoma (obtained from the Centre for Immunology, Sydney University, Sydney, NSW.
(§2) RD10 cells (at a cell density 5×10^5 /ml, 100 ul/well) were cultured for 20 hours at 37° C. with 5% CO2 in RPMI 1640 medium, supplemented with 10% Fetal Calf. Serum. Samples to be tested were mixed and sonicated with this medium at a concentration of 5000, 500.50 and 5 ug/ml and 100 ul aliquots added to the cells. The cells were pulsed with 0.5 uCi/well of ^3 H-thymidine and the plates incubated for four more hours before harvesting (Titertek Skatron harvester, Lier, Norway). Incorporated radioactivity was measured by liquid scintillation counting. All assays were performed in triplicate.
Background: Incorporation of labelled thymidine or its analogues reports DNA synthesis.

For data set [2], the system named is U937 cells (human monocyte-like histiocytic lymphoma). The data set can be described thus: 3H-thymidine incorporation (mitogenic effect) in U937 cells. The class given is cell-based. How it is done:
as §1
2. U937; a human monocyte-like3 histiocytic lymphoma (source: American Tissue Culture Collection).
as §2

The target in the next data set is T1, papain (Carica papaya, UniProt P00784).
T1 construct: purchased Sigma
T1 sequence (P00784 134-345): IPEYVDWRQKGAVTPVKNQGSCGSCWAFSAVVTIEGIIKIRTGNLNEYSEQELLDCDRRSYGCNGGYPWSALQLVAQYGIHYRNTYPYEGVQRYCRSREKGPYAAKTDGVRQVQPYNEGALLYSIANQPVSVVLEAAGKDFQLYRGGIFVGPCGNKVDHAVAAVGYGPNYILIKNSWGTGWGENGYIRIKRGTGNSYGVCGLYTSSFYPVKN
The data set can be described thus: Protease treatment with papain (hydrolysis followed by HPLC). It is filed as biochemical. As to conditions: phosphate buffer pH 6.5, enzyme/substrate 1:50, HPLC monitoring; main product Z-Ala-OH / Z-Gly-OH. As to the method: (§3) Z-Gly-TRIS and Z-Ala-TRIS were incubated with papain, and Z-Leu-Arg-TRIS with trypsin, to test that the action of proteolytic enzymes could regenerate the starting compounds Z-Gly-OH, Z-Ala-OH and Z-Leu-Arg-OH respectively.
50 ul of a suspension of papain (25 mg/ml, Sigma) was incubated with 20 mM aqueous solution of EDTA (50 ul); 1 Molar solution of mercaptoethanol (25 ul); 50 mM triethylamine (25 ul); and water (100 ul) at 37° C. for 30 min.
a) Papain. Z-Ala-TRIS in 50 mmolar phosphate buffer pH 6.5 (650 ul), 20 mM ethylene-diamise-tetra-acetic acid (100 ul) and water to 1 ml. Activated papain (5 mg/ml) was added to a final enzyme/substrate ratio of 1:50. The reaction was followed by HPLC on C18 reverse phase columns and the hydrolysis product identified by co-chromatography with standards. Blanks were incubated as above using water instead of enzyme solution.

A further data set has as its target T2, TPCK trypsin (Bos taurus, UniProt P00760).
T2 sequence (P00760 24-246): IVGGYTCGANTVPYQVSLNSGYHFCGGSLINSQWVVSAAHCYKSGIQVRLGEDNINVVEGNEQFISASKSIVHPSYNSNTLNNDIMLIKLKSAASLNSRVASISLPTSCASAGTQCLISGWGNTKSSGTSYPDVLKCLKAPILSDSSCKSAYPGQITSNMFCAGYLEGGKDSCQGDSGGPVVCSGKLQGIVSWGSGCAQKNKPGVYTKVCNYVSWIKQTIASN
The data set can be described thus: Protease treatment with trypsin (hydrolysis followed by HPLC). It is filed as biochemical. As to conditions: 0.2M ammonium hydrogen carbonate, 37° C., enzyme/substrate 1:50; product Z-Leu-Arg-OH. How it is done: as §3
b) Trypsin. Z-Leu-Arg-TRIS was incubated at a concentration between 2 and 10 mg/ml in 0.2M ammonium hydrogen carbonate. Freshly prepared TPCK trypsin (1 mg/ml in water) was added to the solution giving a final enzyme/substrate ratio of 1:50. Samples were incubated at 37° C. and aliquots examined by reverse phase HPLC. Additional amounts of enzyme were added as required.

Data set [3] concerns RD10 cells (B-cell lymphoma). As to conditions: under these conditions; cited from earlier work.

With `CCCCCCCCCCCCCCCC(=O)OCC(COC(=O)CCCCCCCCCCCCCCC)(COC(=O)CCCCCCCCCCCCCCC)NC(=O)C(C)N` (stereo not drawn) [Ala-TRIS-Tripalmitate], in data set [1], the “3H-thymidine uptake response compared with Z-Ala-TRIS-Tripalmitate” value is on record as “slightly diminished response”. For the same compound, in data set [2], the Thymidine incorporation result is on record as “slightly diminished responses”.
With `CCCCCCCCCCCCCCCC(=O)OCC(COC(=O)CCCCCCCCCCCCCCC)(COC(=O)CCCCCCCCCCCCCCC)NC(=O)C(C)NC(=O)OCc1ccccc1` (stereo not drawn) [Z-Ala-TRIS-Tripalmitate, Z-Ala-TRIS-TRIPALMITATE], the “3H-thymidine uptake: increase in cell proliferation compared to control” value in data set [1] (20 hours culture, 4 hours pulse) was 3-4 fold. Moreover, the Thymidine incorporation result in data set [2] was “close to control”. Besides, the cytotoxic effects result in data set [2] (at higher concentrations) is listed as “slight cytotoxic effects”.
Regarding `CC(NC(=O)OCc1ccccc1)C(=O)NC(CO)(CO)CO` (stereo not drawn) [Z-Ala-TRIS], the “enzymatic hydrolysis by papain” value on papain is “hydrolysed by papain, albeit very slowly”.
Same read-out and setting: in the case of `O=C(CNC(=O)OCc1ccccc1)NC(CO)(CO)CO` [Z-Gly-TRIS] it was “hydrolysed by papain, albeit very slowly”.
As to `CC(C)C[C@H](NC(=O)OCc1ccccc1)C(=O)N[C@@H](CCCNC(=N)N)C(=O)NC(CO)(CO)CO` [Z-Leu-Arg-TRIS], the “enzymatic hydrolysis by trypsin” value on TPCK trypsin is on record as “hydrolyzed slowly”.
Take phytohaemagglutinin: the “3H-thymidine uptake: increase in cell proliferation (known mitogen, for comparison)” value in data set [3] is recorded as 5-10 fold.

The values are drawn from US5583198A, “Amino acids, peptides or derivatives thereof coupled to fats” (Commonwealth Scientific and Industrial Research Organization, priority 1989, dated 1996).
